Laboratory results as given in ChEMBL document CHEMBL1122820, “Purine and 8-substituted purine arabinofuranosyl and ribofuranosyl nucleoside derivatives as potential inducers of the differentiation of the Friend erythroleukemia” (1985).
pIC50: −log10 of the molar value.

Key:
[1] = test system: Erythroleukemia cell line; test: Inhibition of Cellular Replication of friend erythroleukemia cells; format: functional; settings: Mus musculus, read-out: ID50 (the source's name)
[2] = test system: Erythroleukemia cell line; test: Optimum concentration for differentiation of friend erythroleukemia cells; format: functional, Mus musculus
[3] = test system: Erythroleukemia cell line; test: Percent benzidine-positive cell differentiation in friend erythroleukemia cells; format: functional, Mus musculus
[4] = test system: Erythroleukemia cell line; test: Percent benzidine-positive cell differentiation of friend erythroleukemia cells was evaluated (deoxy-coformycin added at 25 uM); format: functional, Mus musculus
[5] = test system: Erythroleukemia cell line; test: Compound was evaluated for the inhibition of Cellular Replication (deoxy-coformycin added at 25 uM); format: functional; settings: Mus musculus, read-out: ID50 (the source's name)
[6] = test system: Erythroleukemia cell line; test: Optimum concentration for the extent of differentiation of friend erythroleukemia cells was evaluated.(deoxy-coformycin added at 25 uM); format: functional, Mus musculus
[7] = test system: Erythroleukemia cell line; test: Percent benzidine-positive cells in friend erythroleukemia cells was evaluated (deoxy-coformycin added at 25 uM); format: functional, Mus musculus
[8] = test system: Erythroleukemia cell line; test: Percent benzidine-positive cell differentiation of friend erythroleukemia cells was evaluated.(deoxy-coformycin added at 25 uM); format: functional, Mus musculus

Row | pIC50 [1] | pIC50 [5] | SMILES | Optimal concentration [2] [mM] | Differentiation [3] [%] | Differentiation [4] [%] | Optimal concentration [6] [mM] | Differentiation [7] [%] | Differentiation [8] [%]
1 | < 2.15 |  | OC[C@H]1O[C@@H](n2cnc3c(O)nc(O)nc32)[C@H](O)[C@@H]1O [XANTHOSINE] | 7 |  |  |  |  | 
2 | < 2.10 |  | CN(C)c1nc2c(O)ncnc2n1[C@@H]1O[C@H](CO)[C@@H](O)[C@H]1O | 8 | 3 |  |  |  | 
3 | < 2.15 |  | O=c1[nH]cnc2c1ncn2[C@@H]1O[C@H](CO)[C@@H](O)[C@H]1O [INOSINE] | 7 | 12 |  |  |  | 
4 |  |  | C[S+](C)[O-] [DIMETHYL SULFOXIDE] | 200 | 70 |  |  |  | 
5 | < 2.15 |  | O=c1[nH]c(=O)c2nc(O)n(C3O[C@H](CO)[C@@H](O)[C@H]3O)c2[nH]1 (stereo partly specified) | 7 | 3 |  |  |  | 
6 | < 2.40 |  | OC[C@H]1OC(n2c(S)nc3c(O)ncnc32)[C@H](O)[C@@H]1O (stereo partly specified) | 4 | 1 |  |  |  | 
7 | < 2.60 |  | OC[C@H]1O[C@@H](n2c(Br)nc3c(O)ncnc32)[C@@H](O)[C@@H]1O | 4 | 1 |  |  |  | 
8 | < 2.10 |  | CN(C)c1nc2c(O)ncnc2n1[C@@H]1O[C@H](CO)[C@@H](O)[C@@H]1O | 8 | 2 |  |  |  | 
9 | 3.07 |  | [N-]=[N+]=Nc1nc2c(O)ncnc2n1[C@@H]1O[C@H](CO)[C@@H](O)[C@@H]1O | 0.5 | 20 |  |  |  | 
10 | 4.03 | 5.52 | Nc1ncnc2c1ncn2[C@@H]1O[C@H](CO)[C@@H](O)[C@@H]1O [VIDARABINE] | 0.08 | 4 | 22 | 0.002 |  | 
11 | < 2.70 |  | OC[C@H]1O[C@@H](n2cnc3c(S)ncnc32)[C@H](O)[C@@H]1O [THIOINOSINE] | 1 | 51 |  |  |  | 
12 | 4.28 |  | Nc1nc2c(O)ncnc2n1[C@@H]1O[C@H](CO)[C@@H](O)[C@H]1O | 0.025 | 1 |  |  |  | 
13 | 2.22 |  | [N-]=[N+]=N[C@H]1[C@H](O)[C@@H](CO)O[C@H]1n1cnc2c(O)ncnc21 | 2 | 40 |  |  |  | 
14 | 3.96 |  | OC[C@H]1O[C@@H](n2cnc3c(S)ncnc32)[C@@H](O)[C@@H]1O | 0.02 | 56 |  |  |  | 
15 | 3.27 | 4.16 | OC[C@H]1O[C@@H](n2cnc3c(NO)ncnc32)[C@@H](O)[C@@H]1O | 0.2 | 74 |  | 0.04 | 20 | 
16 | < 2.15 |  | O=c1[nH]c(=O)c2nc(OCc3ccccc3)n(C3O[C@H](CO)[C@@H](O)[C@H]3O)c2[nH]1 (stereo partly specified) | 7 | 6 |  |  |  | 
17 | < 3.00 | < 3.00 | Nc1ncnc2c1nc(Br)n2[C@@H]1O[C@H](CO)[C@@H](O)[C@H]1O | 1 | 1 |  | 1 | 1 | 
18 | < 2.52 |  | CSc1ncnc2c1ncn2[C@@H]1O[C@H](CO)[C@@H](O)[C@@H]1O | 1.5 | 49 |  |  |  | 
19 | 3.14 |  | [N-]=[N+]=Nc1nc2c(O)ncnc2n1[C@@H]1O[C@H](CO)[C@@H](O)[C@H]1O | 1 | 30 |  |  |  | 
20 | < 2.40 | 4.30 | Nc1ncnc2c1ncn2[C@@H]1O[C@H](CO)[C@@H](O)[C@H]1O [ADENOSINE] | 4 | 3 | 2 | 0.04 |  | 
21 | < 2.30 |  | OC[C@H]1O[C@@H](n2c(Br)nc3c(O)ncnc32)[C@H](O)[C@@H]1O | 5 | 1 |  |  |  | 
22 | < 2.15 |  | O=c1[nH]c(=O)c2nc(Br)n(C3O[C@H](CO)[C@@H](O)[C@H]3O)c2[nH]1 (stereo partly specified) | 7 | 1 |  |  |  | 
23 | 2.80 | 3.07 | Nc1ncnc2c1nc(Br)n2[C@@H]1O[C@H](CO)[C@@H](O)[C@@H]1O | 1.6 | 1 |  | 0.8 |  | 2
24 | 3.22 |  | OC[C@H]1O[C@@H](n2cnc3c(O)ncnc32)[C@@H](O)[C@@H]1O | 0.2 | 82 |  |  |  | 
25 | < 2.30 |  | Nc1nc2c(O)ncnc2n1[C@@H]1O[C@H](CO)[C@@H](O)[C@@H]1O | 4 | 6 |  |  |  | 
26 | 5.15 |  | CSc1ncnc2c1ncn2[C@@H]1O[C@H](CO)[C@@H](O)[C@H]1O | 0.005 | 51 |  |  |  | 
